Data: patent US12295936B2, “Immunomodulating urea azalides” (Zoetis Services LLC, priority 2020, dated 2025)
Entries after “also recorded” stand apart in the source; their conditions may differ. Where two headings read alike, the source gives them in different places.

How the values were obtained:
[1] = tested on: CD163; assay: CD163 expression by flow cytometry, blood of treated/challenged cattle; settings: blood macrophages
[2] = tested on: P. multocida; assay: In-vitro MIC model (CLSI broth micro-dilution); settings: Pasteurella multocida
[3] = tested on: M. haemolytica (OSU-012103-BHI); settings: sc
[4] = tested on: bovine respiratory disease (BRD); assay: Natural bovine respiratory disease (field) studies; type: in vivo, cattle
[5] = tested on: M. haemolytica; assay: In-vitro MIC model (CLSI broth micro-dilution); settings: Mannheimia haemolytica
[6] = tested on: H. somni; assay: In-vitro MIC model (CLSI broth micro-dilution); settings: Histophilus somni
[7] = tested on: IL-6; assay: LPS-stimulated whole bovine blood assay, MSD cytokine detection; type: cell-based; settings: for IC50: Bos taurus, LPS-stimulated bovine whole blood, read-out: IL-6 (IC50 μM)
Excerpt: In order to correlate RNA sequencing data to cytokine changes the whole blood assay was utilized. […] The enhancement result represents an overall stimulation of cytokine levels due to cellular stress or potential toxicity with increasing concentrations of the compound, representing a typical bell shape response curve for immunomodulatory activity.

[8] = tested on: BRD pathogens, M. haemolytica and P. multocida; assay: MIC screening panel of BRD pathogens (antibacterial / non-antibacterial); settings: for MIC: read-out: antibacterial / non-antibacterial (MIC for the BRD pathogens)
[9] = Lipophilicity (logP); type: physicochemical
Excerpt: The lipophilicity of an organic compound can be described by a partition coefficient, log P, which can be defined as the ratio of the concentration of the unionized compound at equilibrium between organic and aqueous phases. Generally speaking, more lipophilic compounds are less soluble in aqueous media. A negative value for log P means the compound has a higher affinity for the aqueous phase (hydrophilic); when log P=0 the compound is equally partitioned between the lipid and aqueous phases; a positive value for log P denotes a higher concentration in the lipid phase (lipophilic). Lipophilicity is a major determining factor in a compound's absorption, distribution in the body, penetration across vital membranes and biological barriers, metabolism and excretion. The compounds of the invention are lipophilic (log P˜0.503 to 5.96) which aid in their transport and absorption into respiratory tissues, e.g., lungs.

[10] = tested on: bovine alveolar macrophages; assay: Phospholipidosis assay (HCS LipidTox, Incucyte); type: cell-based; settings: Bos taurus, Macrophage
Excerpt: The second immunomodulation in vitro assay evaluated the potential for phospholipidosis with the compounds of the invention in bovine alveolar macrophages. This assay is utilized to determine cellular uptake of the compounds of the invention in relevant bovine and murine cell types. This assay utilized Invitrogen's commercially available HCS LipidTox detection kit with an Incucyte real time fluorescence reader to observe variations in EC50 and phospholipidosis profiles based on compound concentrations. Murine intraperitoneal macrophages were also used in the same assay to evaluate species variability for potential correlation with mouse efficacy results. The combination of the bovine whole blood assay and phospholipidosis assays enabled rank ordering for progression into in vivo testing in the murine challenge model.

[11] = tested on: IL-1β; assay: LPS-stimulated whole bovine blood assay, MSD cytokine detection; type: cell-based; settings: for IC50: Bos taurus, LPS-stimulated whole bovine blood, * = enhanced response at concentration indicating potential cytotoxicity; for IL-1β OS of LPS: overstimulation of IL-1β, LPS-stimulated bovine whole blood
[12] = tested on: M. haemolytica (OSU-012103-BHI); assay: In vivo bovine M. haemolytica intratracheal lung infection challenge model; settings: for Significance to T01, mortality: p≤0.2; for Mortality/Euthanization No, % / Mortality/Euthanization No, Number: surviving animals
[13] = tested on: IL-6; assay: Plasma IL-6 biomarker in bovine M. haemolytica challenge; settings: for IL-6 levels (plasma) in bovine M. haemolytica challenge: in vivo
[14] = 4 independent studies with multiple blood donors, FIG. 4
[15] = Table 9 study, T03: 0.5 mg/kg subcutaneous
[16] = Table 9 study, T04: 2.5 mg/kg subcutaneous
[17] = 32 hours post challenge, dosed 24 hours prior to challenge
[18] = Table 7 study, T02: 0.5 mg/kg subcutaneous
[19] = Table 7 study, T03: 2.5 mg/kg subcutaneous

For `CCCNC[C@]1(O)[C@H](C)O[C@@H](O[C@H]2[C@H](C)[C@@H](O[C@@H]3O[C@H](C)C[C@H](N(C)C(=O)N(C)c4ccccc4)[C@H]3O)[C@](C)(O)C[C@@H](C)CN[C@H](C)[C@@H](O)[C@](C)(O)[C@@H](CC)OC(=O)[C@@H]2C)C[C@@]1(C)OC` [Example H-11, 1-((2S,3R,4S,6R)-2-(((2R,3S,4R,5R,8R,10R,11R,12S,13S,14R)-2-ethyl-3,4,10-trihydroxy-13-(((2R,4R,5S,6S)-5-hydroxy-4-methoxy-4,6-dimethyl-5-((propylamino)methyl)tetrahydro-2H-pyran-2-yl)oxy)-3,5,8,10,12,14-hexamethyl-15-oxo-1-oxa-6-azacyclopentadecan-11-yl)oxy)-3-hydroxy-6-methyltetrahydro-2H-pyran-4-yl)-1,3-dimethyl-3-phenylurea], the “CD163 expression in treated cattle” value [1] was “reduced; also recorded: downregulated”, the MIC [2] was over 64 µg/mL and the “Back Transform LS % Lung with Lesions” value ([3]; 0.5 mg/kg) was 28%. For the same molecule, the “Range % Lung with Lesions” value ([3]; 0.5 mg/kg) was 0 to 68%, the “Back Transform LS % Lung with Lesions” value ([3]; 2.5 mg/kg) was 21% and the “Range % Lung with Lesions” value ([3]; 2.5 mg/kg) was 2 to 70%. It also gave a Treatment success ([4]; 0.03 mg/kg (T02) subcutaneous Day 0, natural field study to Day 7, saline 32.1%) of 58.3%, a Treatment success ([4]; 0.1 mg/kg (T03) subcutaneous Day 0, natural field study to Day 7, saline 32.1%) of 60.7% and a Treatment success ([4]; 0.3 mg/kg (T04) subcutaneous Day 0, natural field study to Day 7, saline 32.1%) of 51.2%. It also gave a Treatment success ([4]; 1 mg/kg (T05) subcutaneous Day 0, natural field study to Day 7, saline 32.1%) of 40.5%, an MIC [5] of over 64 µg/mL and an MIC [6] of over 64 µg/mL. For the same molecule, the “expression of IL-6, LPS stimulated whole bovine blood” value [7, 14] was “dose dependent reduction”, the IC50 [7] was 22 µM and the “in vitro activity vs. clinically relevant pathogenic strains for BRD (M. haemolytica and P. multocida)” value [8] was “lack of in vitro activity”. It also gave an MIC [8] of over 64 µg/mL, a logP [9] of 3.2 and an EC50 [10] of 4 µM. For the same molecule, the “expression of IL-1β, LPS stimulated whole bovine blood” value [11, 14] was “dose dependent reduction”, the IC50 [11] was 36 µM and the “IL-1β OS of LPS” value [11] was 32 µM. The “Significance at .20 level to T01, lung lesions” value (from here on “Significance at .20 level to T01”) ([12]; Table 8 study, T03: 0.5 mg/kg subcutaneous) was “No”, the “Significance at .20 level to T01” value ([12]; Table 8 study, T04: 2.5 mg/kg subcutaneous) was “Yes” and the “Mortality/Euthanization Yes, %” value [12, 15] was 16.7%. The “Mortality/Euthanization Yes, Number” value [12, 15] was 4, the “Significance to T01, mortality” value [12, 15] was “Yes” and the “Mortality/Euthanization No, %” value [12, 15] was 83.3%. The “Mortality/Euthanization No, Number” value [12, 15] was 20, the “Mortality/Euthanization Yes, %” value [12, 16] was 25.0% and the “Mortality/Euthanization Yes, Number” value [12, 16] was 6. The “Significance to T01, mortality” value [12, 16] was “No”, the “Mortality/Euthanization No, %” value [12, 16] was 75.0% and the “Mortality/Euthanization No, Number” value [12, 16] was 18. For the same molecule, the “number of blood neutrophils” value ([12]; treatment 24 hours prior to challenge, FIG. 8) was “reduced”, the “reduction in IL-6 levels (geometric mean)” value [13, 17] was 51% and the “reduction in IL-6 levels (median value)” value [13, 17] was 43%. The “IL-6 levels (plasma) in bovine M. haemolytica challenge” value [13] was “reduced; also recorded: downregulated”.

With `CCCNC[C@]1(O)[C@H](C)O[C@@H](O[C@H]2[C@H](C)[C@@H](O[C@@H]3O[C@H](C)C[C@H](N(C)C(=O)Nc4ccccc4)[C@H]3O)[C@](C)(O)C[C@@H](C)CN[C@H](C)[C@@H](O)[C@](C)(O)[C@@H](CC)OC(=O)[C@@H]2C)C[C@@]1(C)OC` [Example H-91, 1-((2S,3R,4S,6R)-2-(((2R,3S,4R,5R,8R,10R,11R,12S,13S,14R)-2-ethyl-3,4,10-trihydroxy-13-(((2R,4R,5S,6S)-5-hydroxy-4-methoxy-4,6-dimethyl-5-((propylamino)methyl)tetrahydro-2H-pyran-2-yl)oxy)-3,5,8,10,12,14-hexamethyl-15-oxo-1-oxa-6-azacyclopentadecan-11-yl)oxy)-3-hydroxy-6-methyltetrahydro-2H-pyran-4-yl)-1-methyl-3-phenylurea] the “CD163 expression in treated cattle” value [1] was “suppressed; also recorded: reduction; also recorded: downregulated”, the MIC [2] was over 256 µg/mL and the “Back Transform LS % Lung with Lesions” value ([3]; 0.5 mg/kg) was 8%. The “Range % Lung with Lesions” value ([3]; 0.5 mg/kg) was 0 to 39%, the “Back Transform LS % Lung with Lesions” value ([3]; 2.5 mg/kg) was 9% and the “Range % Lung with Lesions” value ([3]; 2.5 mg/kg) was 0 to 58%. It also gave a Treatment success ([4]; 0.5 mg/kg (T02) subcutaneous Day 0, natural field study to Day 7, saline 43.0%) of 57.9%, a Treatment success ([4]; 2.5 mg/kg (T03) subcutaneous Day 0, natural field study to Day 7, saline 43.0%) of 43.9% and an MIC [5] of over 256 µg/mL. The MIC ([5]; read-out: MIC against all M. haemolytica target pathogens tested) was over 256 µg/mL, the MIC ([5]; read-out: MIC to the M. haemolytica challenge strain) was over 256 µg/mL and the MIC [6] was over 64 µg/mL. For the same molecule, the IC50 [7] was 181 µM, the “in vitro activity vs. clinically relevant pathogenic strains for BRD (M. haemolytica and P. multocida)” value [8] was “lack of in vitro activity” and the MIC [8] was over 64 µg/mL. The logP [9] was 3.1, the EC50 [10] was 88 µM and the IC50 [11] was 103 µM. The “IL-1β OS of LPS” value [11] was 130 µM, the “Significance at .20 level to T01” value ([12]; Table 6 study, T02: 0.5 mg/kg subcutaneous) was “Yes” and the “Significance at .20 level to T01” value ([12]; Table 6 study, T03: 2.5 mg/kg subcutaneous) was “Yes”. For the same molecule, the “Mortality/Euthanization Yes, %” value [12, 18] was 0%, the “Mortality/Euthanization Yes, Number” value [12, 18] was 0 and the “Significance to T01, mortality” value [12, 18] was “Yes”. The “Mortality/Euthanization No, %” value [12, 18] was 100%, the “Mortality/Euthanization No, Number” value [12, 18] was 23 and the “Mortality/Euthanization Yes, %” value [12, 19] was 8.3%. For the same molecule, the “Mortality/Euthanization Yes, Number” value [12, 19] was 2, the “Significance to T01, mortality” value [12, 19] was “Yes” and the “Mortality/Euthanization No, %” value [12, 19] was 91.7%. For the same molecule, the “Mortality/Euthanization No, Number” value [12, 19] was 22 and the “IL-6 levels (plasma) in bovine M. haemolytica challenge” value [13] was “reduction; also recorded: downregulated”.
